Test results as given in patent US20240287124A1, “PRODRUGS OF 4'-SUBSTITUTED NUCLEOSIDE REVERSE TRANSCRIPTASE INHIBITORS” (Merck Sharp & Dohme LLC, priority 2023, published 2024).

Tested on: HIV-1 wild-type (R8) virus
Test: Viral KINetics in Green cells (VIKING) assay, HIV-1 replication in MT4-GFP reporter cells
Type: cell-based
Conditions: Human immunodeficiency virus 1, 10% normal human serum, MT4-GFP cells, HIV-1 wild-type (R8); read-out: Viking (10% NHS), IC50
Protocol: Antiviral potency of the compounds was determined based on their ability to block HIV-1 replication in a GFP reporter cell line; this assay is referred to as Viral KINetics in Green cells or VIKING assay. HIV-1 replication was monitored using MT4-gag-GFP clone D3 (hereafter designate MT4-GFP) cells, which are MT4 cells modified to harbor a GFP reporter gene, the expression of which is dependent on the HIV-1 proteins tat and rev. (MT4 is a human T-cell line that is particularly sensitive to HIV-1 replication.) HIV-1 infection of MT4-GFP cells results in GFP expression approximately 24 h post-infection. MT4-GFP cells were maintained at 37° C./5% CO2/90% relative humidity in RPMI 1640 supplemented with 10% fetal bovine serum, 100 U/mL penicillin/streptomycin, and […] G418 to maintain the reporter gene. For infections, MT4-GFP cells were placed in the same medium lacking G418 and infected overnight with HIV-1 wild-type (R8) virus at an approximate multiplicity of infection of 0.01 in the same incubation conditions. Cells were then washed and resuspended in RPMI 1640 containing 10% normal human serum at 2×10^5 cells/mL. Compound plates were prepared by dispensing compounds dissolved in DMSO into wells of 384-well poly D lysine-coated plates (0.2 μl/well) using an ECHO acoustic dispenser. Each compound was tested in a 10-point serial 3-fold dilution (typical final concentrations: 4 μM-0.2 nM). Controls included no inhibitor (DMSO only) and a combination of three antiviral agents as a positive control (efavirenz, indinavir, and an integrase strand transfer inhibitor at final concentrations of 4 μM each). Infected cells were added (50 μL/well) to compound plates and were maintained at 37° C./5% CO2/90% relative humidity. Infected cells were quantified at two time points, approximately 48 h and 72 h post-infection, by counting the number of green cells in each well using an Acumen eX3 scanner. The increase in the number of green cells over ˜24 h period gives the reproductive ratio, R, which is calculated by dividing the number of green cells at 72 h over those at 48 h post-infection. The percent inhibition caused by a test compound is calculated using the following formula: […]
The dose-response curves of each test compound were plotted as % inhibition versus the compound concentration. IC50 values were determined by non-linear 4-parameter fitting of the dose-response curves.

Compound | IC50 [µM]
C#C[C@]1(COCOC(=O)c2ccccc2)O[C@@H](n2ccc3c(N)nc(Cl)nc32)C[C@@H]1OC(=O)c1ccccc1 [Example 138] | 0.041
C#C[C@]1(COC(=O)OCc2cccnc2)O[C@@H](n2ccc3c(N)nc(Cl)nc32)C[C@@H]1O [Example 165] | 0.0049
C#C[C@]1(CO)O[C@@H](n2ccc3c(NC(=O)OCCCCC[C@@H]4SC[C@@H]5NC(=O)N[C@@H]54)nc(Cl)nc32)C[C@@H]1O [Example 151] | 0.017
C#C[C@]1(COC(=O)OCCCCC[C@@H]2SC[C@@H]3NC(=O)N[C@@H]32)O[C@@H](n2ccc3c(N)nc(Cl)nc32)C[C@@H]1OC(=O)OCCC12CC3CC(CC(C3)C1)C2 [Example 176] | 0.127
C#C[C@]1(CO)O[C@@H](n2ccc3c(N)nc(Cl)nc32)C[C@@H]1OC(=O)[C@H](C)c1ccccc1 [Example 99] | 0.029
C#C[C@]1(COC(=O)C23CC(C2)C3)O[C@@H](n2ccc3c(N)nc(Cl)nc32)C[C@@H]1OC(=O)C12CC(C1)C2 [Example 104] | 0.0041
C#C[C@]1(COC(=O)C23CC(C2)C3)O[C@@H](n2ccc3c(N)nc(Cl)nc32)C[C@@H]1OC(=O)OCCC12CC3CC(CC(C3)C1)C2 [Example 109] | 0.021
C#C[C@]1(COC(=O)OCC(C)(C)C)O[C@@H](n2ccc3c(N)nc(Cl)nc32)C[C@@H]1O [Example 123] | 0.0041
C#C[C@]1(COC(=O)OCCCCCCCC)O[C@@H](n2ccc3c(N)nc(Cl)nc32)C[C@@H]1OC(C)=O [Example 112] | 0.028
C#C[C@]1(COC(=O)OCC23CC(C2)C3)O[C@@H](n2ccc3c(N)nc(Cl)nc32)C[C@@H]1O [Example 168] | 0.0039
C#C[C@]1(COC(=O)OCC23CC(C2)C3)O[C@@H](n2ccc3c(N)nc(Cl)nc32)C[C@@H]1OC(=O)OCCC12CC3CC(CC(C3)C1)C2 [Example 175] | 0.034
C#C[C@]1(COC(=O)OCc2ccccc2)O[C@@H](n2ccc3c(N)nc(Cl)nc32)C[C@@H]1OC(=O)OCCC12CC3CC(CC(C3)C1)C2 [Example 215] | 0.044
C#C[C@]1(CO)O[C@@H](n2ccc3c(NC(=O)OCCc4ccccc4)nc(Cl)nc32)C[C@@H]1O [Example 149] | 0.429
C#C[C@]1(CO)O[C@@H](n2ccc3c(NC(=O)OCCCCCCCCCCCC)nc(Cl)nc32)C[C@@H]1O [Example 219] | 2.41
C#C[C@]1(COC(=O)C23CC(C2)C3)O[C@@H](n2ccc3c(N)nc(Cl)nc32)C[C@@H]1O [Example 106] | 0.0025
C#C[C@]1(CO)O[C@@H](n2ccc3c(N)nc(Cl)nc32)C[C@@H]1OC(=O)OC [Example 157] | 0.02
C#C[C@]1(COC(=O)OCc2ccn(C)c(=O)c2)O[C@@H](n2ccc3c(N)nc(Cl)nc32)C[C@@H]1O [Example 131] | 0.0035
C#C[C@]1(CO)O[C@@H](n2ccc3c(N(C(=O)OCCCCCCCC)C(=O)OCCCCCCCC)nc(Cl)nc32)C[C@@H]1O [Example 224] | 0.842
C#C[C@]1(COC(=O)OCc2cccn(C)c2=O)O[C@@H](n2ccc3c(N)nc(Cl)nc32)C[C@@H]1O [Example 208] | 0.0044
C#C[C@]1(COC(=O)OCCC23CC(C2)C3)O[C@@H](n2ccc3c(N)nc(Cl)nc32)C[C@@H]1O [Example 170] | 0.0043
C#C[C@]1(CO)O[C@@H](n2ccc3c(N)nc(Cl)nc32)C[C@@H]1OCOC(=O)c1ccccc1 [Example 139] | 0.0036
C#C[C@]1(CO)O[C@@H](n2ccc3c(N)nc(Cl)nc32)C[C@@H]1OC(=O)CCCCCCCCCCCCCCC [Example 83] | 0.025
C#C[C@]1(COC(=O)O[C@H](C)c2ccccc2)O[C@@H](n2ccc3c(N)nc(Cl)nc32)C[C@@H]1O [Example 125] | 0.0037

Compound | IC50 [µM]
C#C[C@]1(COC(=O)OCC23CC(C2)C3)O[C@@H](n2ccc3c(N)nc(Cl)nc32)C[C@@H]1OC(=O)OCC12CC(C1)C2 [Example 167] | 0.0072
C#C[C@]1(COC(=O)OCc2ccccc2)O[C@@H](n2ccc3c(N)nc(Cl)nc32)C[C@@H]1OC(=O)CCCCCCC [Example 211] | 0.004
C#C[C@]1(COC(=O)CC23CC(C2)C3)O[C@@H](n2ccc3c(N)nc(Cl)nc32)C[C@@H]1OC(=O)CC12CC(C1)C2 [Example 95] | 0.0086
C#C[C@]1(COC(=O)CCCCCCCCCCCCCCCCCCC)O[C@@H](n2ccc3c(N)nc(Cl)nc32)C[C@@H]1O [Example 91] | 0.135
C#C[C@]1(CO)O[C@@H](n2ccc3c(NC(=O)OCCCCCCCC)nc(Cl)nc32)C[C@@H]1O [Example 223] | 0.411
C#C[C@]1(COC(=O)OCCCCCCCCCC)O[C@@H](n2ccc3c(N)nc(Cl)nc32)C[C@@H]1OC(=O)OCCCCCCCCCC [Example 92] | 3.51
C#C[C@]1(COC(=O)CCCCC)O[C@@H](n2ccc3c(N)nc(Cl)nc32)C[C@@H]1OC(=O)CCCC[C@@H]1SC[C@@H]2NC(=O)N[C@@H]21 [Example 191] | 0.02
C#C[C@]1(CO)O[C@@H](n2ccc3c(N)nc(Cl)nc32)C[C@@H]1OC(=O)OCc1ccn(C)c(=O)c1 [Example 158] | 0.011
C#C[C@]1(COC(=O)OCc2cc[nH]c(=O)c2)O[C@@H](n2ccc3c(N)nc(Cl)nc32)C[C@@H]1O [Example 130] | 0.0029
C#C[C@]1(COC(=O)OCc2ccccc2)O[C@@H](n2ccc3c(N)nc(Cl)nc32)C[C@@H]1OC(=O)CCCC[C@@H]1SC[C@@H]2NC(=O)N[C@@H]21 [Example 195] | 0.04
C#C[C@]1(CO)O[C@@H](n2ccc3c(N)nc(Cl)nc32)C[C@@H]1OCOC(=O)OC(C)C [Example 141] | 0.0035
C#C[C@]1(CO)O[C@@H](n2ccc3c(N)nc(Cl)nc32)C[C@@H]1OC(=O)[C@@H](C)c1ccccc1 [Example 102] | 0.043
C#C[C@]1(COC(=O)CCCCCCCC)O[C@@H](n2ccc3c(N)nc(Cl)nc32)C[C@@H]1O [Example 118] | 0.0043
C#C[C@]1(COCOC(=O)c2ccccc2)O[C@@H](n2ccc3c(N)nc(Cl)nc32)C[C@@H]1OCOC(=O)c1ccccc1 [Example 137] | 0.0045
C#C[C@]1(COC(=O)OCc2ccc[nH]c2=O)O[C@@H](n2ccc3c(N)nc(Cl)nc32)C[C@@H]1OC(=O)OCc1ccc[nH]c1=O [Example 205] | 0.004
C#C[C@]1(CO)O[C@@H](n2ccc3c(NC(=O)CCCc4ccccc4)nc(Cl)nc32)C[C@@H]1O [Example 198] | 0.063
C#C[C@]1(CO)O[C@@H](n2ccc3c(NC(=O)OCC4CCCCC4)nc(Cl)nc32)C[C@@H]1O [Example 150] | 0.74
C#C[C@]1(COC(=O)[C@@H](C)c2ccccc2)O[C@@H](n2ccc3c(N)nc(Cl)nc32)C[C@@H]1OC(=O)[C@@H](C)c1ccccc1 [Example 103] | 0.405
C#C[C@]1(COC(=O)OCc2cccn(C)c2=O)O[C@@H](n2ccc3c(N)nc(Cl)nc32)C[C@@H]1OC(=O)OCc1ccccc1 [Example 93] | 0.0078
C#C[C@]1(COC(=O)OCc2cccn(C)c2=O)O[C@@H](n2ccc3c(N)nc(Cl)nc32)C[C@@H]1OC(=O)OCc1cccn(C)c1=O [Example 206] | 0.0034
C#C[C@]1(COC(=O)OCCCCC[C@@H]2SC[C@@H]3NC(=O)N[C@@H]32)O[C@@H](n2ccc3c(NC(=O)CCc4ccccc4)nc(Cl)nc32)C[C@@H]1O [Example 204] | 0.123
C#C[C@]1(CO)O[C@@H](n2ccc3c(N)nc(Cl)nc32)C[C@@H]1OC(=O)OCC [Example 155] | 0.029
